Source: patent US20160115540A1, “PRODRUGS AND DRUGS” (Biogen MA Inc., priority 2013, published 2016)
Counter-ions that a name gives are not always drawn.

Tested on: blood and tissues
Experiment: Transcriptional profiling, multi-dosing regimen, naïve mice: blood and other tissues
Type: in vivo
Description: In vivo, DMF is rapidly metabolized to monomethyl fumarate (MMF). […] Animals were exposed to CO2 and whole blood collected via cardiac puncture. Two 100 μl aliquots of whole blood were collected in 1.5 mL microcentrifuge tubes and snap frozen in liquid nitrogen. Peripheral (liver, spleen, kidney and jejunum) and CNS brain (cerebellum, hippocampus, striatum and cortex) tissues were harvested and snap frozen in liquid nitrogen, with special care taken to collect tissues of similar size and from the same location. All samples were stored at -80° C. until RNA extraction was conducted. For RNA preparation, frozen tissues were placed in 2 mL RNAse-free 96-well blocks with 1.5 mL QIAzol Lysis Reagent (QIAgen) and a 3.2 mm stainless steel bead (BioSpec Products, Bartlesville, Okla.). Tissues were disrupted for four cycles of 45 seconds in a Mini-Beadbeater (Biospec Products). RNA was extracted in chloroform and the aqueous phase was mixed with an equal volume of 70% ethanol. Extracted RNA was applied to RNeasy 96 plates and purified by the spin method according to the manufacturer's protocol (RNeasy 96 Universal Tissue Protocol, QIAgen, Hilden Germany). 50 ul of snap frozen mouse blood was re-suspended in lysis buffer with proteinase K and arrayed into deep-well plates for automated RNA extraction. RNA extractions were completed on […] (Beckman Coulter, Indianapolis, Ind.) using Agencourt RNAdvance Blood kit (Part number A35604) according to the manufacturer's specifications. RNA integrity was assessed using the HT RNA reagent kit (Part number 760410, Caliper Life Sciences, Hopkinton, Mass.) using a LabChip GX (PerkinElmer, Waltham, Mass.). RNA samples with a RQS score of >8.0 were considered high quality for downstream microarray processing. […] Two micrograms of biotin labeled […] probe were hybridized to Affymetrix GeneChip Affymetrix HT_MG-430_PM plate arrays with modified conditions as described in […] et al. Washing and staining of the hybridized arrays were completed as described in the GeneChip Expression analysis technical manual for HT plate arrays using the Genechip® Array Station (Affymetrix, Santa Clara, Calif.) with modifications as described in […] et al. The processed GeneChip® plate arrays were scanned using GeneTitan scanner (Affymetrix, Santa Clara, Calif.). Affymetrix scans were subject to quality control (QC) measures. These tests included a visual inspection of the distribution of raw signal intensities and an assessment of RNA degradation, relative log expression (RLE), and normalized unsealed standard error (NUSE). All sample scans that passed these QC metrics were included in the analysis. All CEL files were subjected to GC-content-based Robust Multi-array Average (GCRMA) normalization (version 2.20.0) (Irizarry R A, et al. Nucleic Acids Res 2003; 31:e15; Li C, et al. Genome Biol 2001; 2:[…]0032). […] Stat Appl Genet Mol Biol 2004; 3:Article3). […] Springer Science+Business Media 2005). Changes in gene expression were studied by applying a linear modeling approach to fit gene expression levels according to the defined groups of samples (e.g. DMF-, MMF-, and Vehicle-treated animals) and Bayesian posterior error analysis as implemented by Smyth (Smyth G K. Stat Appl Genet Mol Biol 2004; 3:Article3). The comparisons considered included: DMF-vs-MMF, DMF-vs-Vehicle, and MMF-vs-Vehicle. […] Very few DEGs are observed in blood and tissues derived from the central nervous system (brain, cerebellum, cortex, striatum, and spinal cord).

[1] = CEREBELLUM, 100MMF-vs-Veh, naïve multidose
[2] = LYMPH NODE, 100MMF-vs-Veh, naïve multidose
[3] = Table 13: Naïve, Single Dose (so in the source), 90 mpk MMF-vs-Vehicle, 12 h after last dosing
[4] = WHOLE BLOOD, 100MMF-vs-Veh, naïve multidose

In the case of `COC(=O)/C=C/C(=O)O` [MMF, monomethyl fumarate], the FC (1447339_PM_at (no gene symbol), WHOLE BLOOD, 100MMF-vs-Veh) was 2.49, the “FC 1110021J02Rik (1419892_PM_at)” value [1] was 1.56 and the “FC 9430064I24Rik (1442912_PM_at)” value [1] was 1.86. The “FC Aox1 (1419435_PM_at)” value [1] was 1.54, the “FC Apold1 (1441228_PM_at)” value [1] was 1.95 and the “FC Cntn2 (1456962_PM_at)” value [1] was 1.98. For the same compound, the “FC D130062J21Rik (1446929_PM_at)” value [1] was 1.66, the “FC Kat2b (1450821_PM_at)” value [1] was −1.68 and the “FC Lrrc50 (1421974_PM_at)” value [1] was 1.61. For the same compound, the “FC Pcsk1n (1416965_PM_at)” value [1] was 1.50, the “FC Prr15 (1452473_PM_at)” value [1] was 1.53 and the “FC Slc35a5 (1423457_PM_at)” value [1] was −1.50. For the same compound, the “FC Sox12 (1439754_PM_at)” value [1] was 1.67, the “FC Tm6sf2 (1425079_PM_at)” value [1] was 1.85 and the “FC probe 1442605_PM_at (no gene symbol)” value [1] was −1.75. The “FC probe 1446131_PM_at (no gene symbol)” value [1] was 1.78, the FC (Csf1 1460220_PM_a_at, WHOLE BLOOD, 100MMF-vs-Veh) was 1.75 and the FC (Csrp3 1460318_PM_at, WHOLE BLOOD, 100MMF-vs-Veh) was 1.52. The FC (Egr3 1436329_PM_at, WHOLE BLOOD, 100MMF-vs-Veh) was −1.60, the FC (Gstm1 1416416_PM_x_at, WHOLE BLOOD, 100MMF-vs-Veh) was 1.59 and the “FC Gtf2ird1 (1460364_PM_at)” value [2] was 1.56. For the same compound, the “FC Npas2 (1421037_PM_at)” value [2] was 1.75, the “FC Nqo1 (1423627_PM_at)” value [2] was 1.74 and the FC (Lpl 1415904_PM_at, WHOLE BLOOD, 100MMF-vs-Veh) was 2.65. For the same compound, the FC (Pla2g7 1430700_PM_a_at, WHOLE BLOOD, 100MMF-vs-Veh) was 1.76, the FC (Slc27a2 1416316_PM_at, WHOLE BLOOD, 100MMF-vs-Veh) was −1.93 and the “Number of differentially expressed genes identified: Cerebellum” value [3] was 15. The “Number of differentially expressed genes identified: Lymph Node” value [3] was 3, the “Number of differentially expressed genes identified: Whole blood” value [3] was 11 and the FC (Tnfaip2 1416273_PM_at, WHOLE BLOOD, 100MMF-vs-Veh) was 1.81. For the same compound, the FC (Tnfaip2 1438855_PM_x_at, WHOLE BLOOD, 100MMF-vs-Veh) was 1.52, the FC (Trf 1425546_PM_a_at, WHOLE BLOOD, 100MMF-vs-Veh) was 1.56 and the “FC A230048O21Rik (1458051_PM_at)” value [4] was 1.53. The “FC Aco1 (1456728_PM_x_at)” value [4] was −2.14, the “FC Adamts20 (1456901_PM_at)” value [4] was −1.69 and the “FC Adora2a (1460710_PM_at)” value [4] was 1.66. For the same compound, the “FC Ankrd33b (1453782_PM_at)” value [4] was −1.64, the “FC Anks1b (1460449_PM_at)” value [4] was −1.56 and the “FC Armcx2 (1456739_PM_x_at)” value [4] was −1.76. The “FC Ascc3 (1457069_PM_at)” value [4] was −1.61, the “FC B3galnt2 1454842_PM_a_at” value [4] was −1.86 and the “FC B3galt1 (1455234_PM_at)” value [4] was −1.50. For the same compound, the “FC Cno 1459783_PM_s_at” value [4] was −1.77, the “FC Commd3 (1454642_PM_a_at)” value [4] was −1.50 and the “FC Cycs /// Gm10053 1456071_PM_a_at” value [4] was −1.64. The “FC D6Wsu116e (1456056_PM_a_at)” value [4] was −1.74, the “FC Ddr1 (1456226_PM_x_at)” value [4] was −1.58 and the “FC Dnaja1 (1459835_PM_s_at)” value [4] was −1.60. For the same compound, the “FC Eftud2 (1456107_PM_x_at)” value [4] was −1.61, the “FC Eif4g2 (1452758_PM_s_at)” value [4] was −1.91 and the “FC Epc2 (1455317_PM_at)” value [4] was −1.56. For the same compound, the “FC Fgd4 (1455337_PM_at)” value [4] was −1.52, the “FC Fgfbp3 (1453006_PM_at)” value [4] was −1.58 and the “FC Gm8203 /// H2afz (1456032_PM_x_at)” value [4] was −1.53. For the same compound, the “FC Gsto1 1456036_PM_x_at” value [4] was −1.64, the “FC Gtf3c3 (1454765_PM_at)” value [4] was −1.82 and the “FC Hecw1 (1456527_PM_at)” value [4] was −1.55. For the same compound, the “FC Hspa1b 1452318_PM_a_at” value [4] was −1.57, the “FC Itga8 (1454966_PM_at)” value [4] was −1.51 and the “FC Kbtbd7 (1452700_PM_s_at)” value [4] was −1.52. The “FC Kcnt2 (1459971_PM_at)” value [4] was −1.73, the “FC Kctd3 1455816_PM_a_at” value [4] was −1.88 and the “FC Lasp1 (1455470_PM_x_at)” value [4] was −1.56. The “FC Lrrtm1 (1455883_PM_a_at)” value [4] was −1.60, the “FC Lztr1 (1455928_PM_x_at)” value [4] was −2.01 and the “FC Matn2 (1455978_PM_a_at)” value [4] was −2.07. The “FC Mrps23 (1459806_PM_x_at)” value [4] was −1.56, the “FC Nr3c1 (1457635_PM_s_at)” value [4] was −1.58 and the “FC Odz2 (1457273_PM_at)” value [4] was −1.53. For the same compound, the “FC Olfm1 (1455796_PM_x_at)” value [4] was −1.65, the “FC Pcdh17 (1453070_PM_at)” value [4] was −1.53 and the “FC Pik3ca (1453134_PM_at)” value [4] was −1.62. The “FC Pitrm1 (1456577_PM_x_at)” value [4] was −1.68, the “FC Prcp (1452190_PM_at)” value [4] was 1.53 and the “FC Ptpn12 (1455105_PM_at)” value [4] was −1.54. The “FC Pvrl3 (1457257_PM_x_at)” value [4] was −2.12, the “FC Qrsl1 (1456542_PM_s_at)” value [4] was −1.67 and the “FC Ralgapa2 (1455750_PM_at)” value [4] was −1.74. For the same compound, the “FC Ric8 (1455809_PM_x_at)” value [4] was −1.56, the “FC Rnf112 (1456108_PM_x_at)” value [4] was −1.57 and the “FC Rp2h (1454816_PM_at)” value [4] was −1.51. The “FC Snx16 (1456041_PM_at)” value [4] was −1.78, the “FC Sos2 (1452281_PM_at)” value [4] was −1.56 and the “FC Surf4 (1455822_PM_x_at)” value [4] was −1.56. The “FC Tceb1 1452593_PM_a_at” value [4] was −1.52, the “FC Tmed10 (1454688_PM_x_at)” value [4] was −1.52 and the “FC Tnik (1458403_PM_at)” value [4] was −1.58. The “FC Tra2a (1454725_PM_at)” value [4] was −1.65, the “FC Trim23 (1456089_PM_at)” value [4] was −1.71 and the “FC Ubr3 (1460455_PM_at)” value [4] was −1.63. For the same compound, the “FC Wdr6 (1455940_PM_x_at)” value [4] was −1.50, the “FC Wtap (1454805_PM_at)” value [4] was −1.57 and the “FC probe 1452426_PM_x_at (no gene symbol)” value [4] was −1.56. The “FC probe 1455603_PM_at (no gene symbol)” value [4] was −1.71, the “FC probe 1457494_PM_at (no gene symbol)” value [4] was −1.53 and the “FC probe 1458639_PM_at (no gene symbol)” value [4] was 1.51. The “FC probe 1459409_PM_at (no gene symbol)” value [4] was 1.71.
